Here are results for eleven compounds from patent US11576911B2, “Composition and method for treatment of depression and psychosis in humans” (Glytech LLC, priority 2012, dated 2023).

The subject of one experiment is Male BalbC/J mice. As to the kind of experiment: Rodent forced swim test (FST), immobility time. Type of experiment: in vivo. More on the design: key to Mean immobility time in the rodent forced swim test (FST): seconds of immobility over the 6-min test. To be noted: for Mean immobility time in the rodent forced swim test (FST): Table 5; for immobility time in the rodent forced swim test (FST), Mean: Table 3. The source says: Male BalbC/J mice (8 weeks old) from Jackson Laboratories (Bar Harbor, Me.) were used. Upon receipt, mice were assigned unique identification numbers (tail marked) and were group housed in OPTImice cages. All animals were acclimated to the colony room for 1 week prior to testing. During the period of acclimation, animals were examined on a regular basis, handled, and weighed to assure adequate health and suitability. Animals were maintained on a 12/12 light/dark cycle. The room temperature was maintained between 20 and 23° C. with a relative humidity maintained between 30% and 70%. Chow and water were provided ad libitum for the duration of the study. All testing was performed during the animal's light cycle phase.
Mice were acclimated to the test room at least 1 hour prior to commencing the test. The forced swimming test consisted of one 6-minute session of forced swimming in individual opaque cylinders (15 cm tall×10 cm wide, 1000 ml beakers) containing fresh tap water at a temperature of 23±2° C. and a depth of 12 cm (approximately 800 ml) for each test animal. The time the animal spent immobile was recorded over the 6 min trial. Every 1 min the cumulative immobility time was recorded from the start of the session and noted on the study data record sheet. Immobility was defined as the postural position of floating in the water. The animals were generally observed with the back slightly hunched and the head above water with no movements or with small stabilizing movements of the limbs. After the swim test, each animal was placed in a pre-heated cage with a heating pad and allowed to dry.
The main variable used to represent immobility in this test was the total time immobile during the 6-min test period. Statistics were performed by analysis of variance (ANOVA) with Dunnett post-hoc testing vs. the control condition or by t-test as appropriate.
Sertraline, a known antidepressant, is used as a positive control.
For this study, further NMDAR antagonist compounds were tested for their ability to reduce immobility time in the rodent FST test, indicative of potential anti-depressant effects, and further 5-HT2AR antagonists were tested for their ability to produce reductions of time spent in the open arms of the EPM, indicative to potential liability to induce anxiety, akathisia and suicidality in humans

The test system of another experiment is Male C57Bl/6J mice. As to the kind of experiment: Elevated plus maze (EPM), DOI 2 mg/kg in all conditions. Type of experiment: in vivo. Particulars: for DTO Mean / PCT Mean: Table 2; for Mean distance travelled in the open arm of the EPM: Table 6, DOI 2 mg/kg added; for Distance travelled in the open arm relative to the vehicle, in words: Table 6 doses, DOI 2 mg/kg added in all conditions.

Consider `O=C(/C=C/c1c(C(=O)O)[nH]c2cc(Cl)cc(Cl)c12)Nc1ccccc1` [Gavestinel], for which the “Mean immobility time in the rodent forced swim test (FST)” value in the experiment on Male BalbC/J mice (0.1 mg/kg) is on record as 136.10; with Male BalbC/J mice (0.3 mg/kg), 116.30; with Male BalbC/J mice (1.0 mg/kg) it was 109.60; in the experiment with Male BalbC/J mice (3.0 mg/kg), 122.70; with Male BalbC/J mice (10 mg/kg) it was 111.40; with Male BalbC/J mice (30 mg/kg), 131.90. Further, the “Effect on immobility in the FST, in words” value in the experiment with Male BalbC/J mice (at indicated doses of Table 5) was “numerically reduce immobility”.
`O=C1CCc2ccc(OCCCCN3CCN(c4cccc(Cl)c4Cl)CC3)cc2N1` [Aripiprazole]: in the experiment with Male C57Bl/6J mice (1 mg/kg alone), the “DTO Mean” value is on record as 113.9 and the “PCT Mean” value is reported as 34.9%. In addition, the “Effect on distance travelled in open arm / % time in open arm of EPM, in words” value with Male C57Bl/6J mice (agent alone vs control, doses of Tables 1 and 2) is “significantly decreased distance travelled in the open arm, but not % of time in the open arm”.
Take `CN(C)C(=O)N[C@H]1CC[C@H](CCN2CCN(c3cccc(Cl)c3Cl)CC2)CC1` [Cariprazine]: the “Mean distance travelled in the open arm of the EPM” value (“Mean distance travelled” for short) is listed as 186.00 in the experiment on Male C57Bl/6J mice (0.03 mg/kg), 174.30 in the experiment with Male C57Bl/6J mice (0.1 mg/kg) and 69.70 in the experiment with Male C57Bl/6J mice (1 mg/kg).
On to `CN(C)CCCN1c2ccccc2CCc2ccccc21` [Imipramine], for which, in the experiment on Male C57Bl/6J mice (10 mg/kg), the “Mean distance travelled” value turned out to be 235.00. Also, the “Distance travelled in the open arm relative to the vehicle, in words” value with Male C57Bl/6J mice is on record as “no significant effects”.
With `C[C@@H]([C@@H](O)c1ccc(O)cc1)N1CCC(O)(c2ccccc2)CC1` [CP101606], the “Reversal of 5-HT2A antagonist induced reductions in open arm measures of the EPM, in words” value in the experiment with Male C57Bl/6J mice (NMDAR antagonists, summary of Example 1) is on record as “Pro-therapeutic effects”.
For the compound `O=C1[C@@H]2[C@H]3CC[C@H](C3)[C@@H]2C(=O)N1C[C@@H]1CCCC[C@H]1CN1CCN(c2nsc3ccccc23)CC1` [Lurasidone], the immobility time in the rodent forced swim test (FST), Mean in the experiment with Male BalbC/J mice (1 mpk alone) is 157 s; in the experiment with Male BalbC/J mice (3 mpk alone), 169 s; with Male BalbC/J mice (.2 mpk alone) it was 146 s. The “DTO Mean” value stood at 172.9 in the experiment on Male C57Bl/6J mice (.1 mg/kg alone), 120.8 in the experiment on Male C57Bl/6J mice (.2 mg/kg alone) and 134.2 in the experiment on Male C57Bl/6J mice (.3 mg/kg alone). The “PCT Mean” value in the experiment on Male C57Bl/6J mice (.1 mg/kg alone) is 32.5%; with Male C57Bl/6J mice (.2 mg/kg alone), 22.9%; in the experiment on Male C57Bl/6J mice (.3 mg/kg alone) it was 26.6%.
Take `N#Cc1c[nH]c2c(C(=O)N3CCN(CCc4ccc(F)cc4)CC3)cccc12` [EMD281014]: the figures for the “Mean distance travelled” value with Male C57Bl/6J mice (1 mg/kg), with Male C57Bl/6J mice (3 mg/kg) and in the experiment with Male C57Bl/6J mice (10 mg/kg) were 111.00, 42.70 and 44.80, respectively.
Regarding `CCN(CC)C(=O)[C@@]1(c2ccccc2)C[C@H]1CN` [Levomilnacipran], in the experiment on Male C57Bl/6J mice (40 mg/kg), the “Mean distance travelled” value came to 237.90. In addition, the “Distance travelled in the open arm relative to the vehicle, in words” value in the experiment with Male C57Bl/6J mice is “no significant effects”.
Compound `O=c1ccc2ccc(OCCCCN3CCN(c4cccc5sccc45)CC3)cc2[nH]1` [Brexpiprazole] registered an immobility time in the rodent forced swim test (FST), Mean in the experiment with Male BalbC/J mice (.3 mpk alone) of 239 s. Also, in the experiment on Male BalbC/J mice (agent alone (Table 3)), the “Effect on immobility in the forced swim test, in words” value is recorded as “significantly increased immobility”. Moreover, in the experiment with Male C57Bl/6J mice (.3 mg/kg alone), the “DTO Mean” value is recorded as 131.6. Also, the “PCT Mean” value in the experiment on Male C57Bl/6J mice (.3 mg/kg alone) stood at 28.7%. Moreover, the entries for the “Mean distance travelled” value with Male C57Bl/6J mice (0.1 mg/kg), with Male C57Bl/6J mice (0.3 mg/kg) and in the experiment with Male C57Bl/6J mice (1 mg/kg) were 160.10, 204.70 and 93.70, respectively.
On to `CN[C@H]1CC[C@@H](c2ccc(Cl)c(Cl)c2)c2ccccc21` [Sertraline], for which, in the experiment with Male BalbC/J mice (20 mg/kg), the “Mean immobility time in the rodent forced swim test (FST)” value was determined as 85.50.
`CN(C)CCO/N=C(/C=C/c1ccc(O)cc1)c1ccccc1F` [SR46349B]: the figures for the “Mean distance travelled” value in the experiment with Male C57Bl/6J mice (0.3 mg/kg), in the experiment with Male C57Bl/6J mice (1 mg/kg) and in the experiment with Male C57Bl/6J mice (10 mg/kg) were 127.10, 98.00 and 105.90, respectively.
